The values below come from US20260001893A1, “SMALL MOLECULE MODULATORS OF STAT6” (Gilead Sciences, Inc., priority 2024, published 2026).

The Kd is the free concentration of one partner at which half of the binding sites on the other are occupied at equilibrium, for simple one-to-one binding. Usually EC50 stands for the concentration giving half of the maximal effect. For orientation: Emax means the maximal effect, on the per cent scale that the assay sets.

In assay [1] the target is T1, Human STAT6 (truncated, aa122-658, with N-terminal His-tag) (Homo sapiens, UniProt P42226).
T1 construct: Human STAT6 (truncated, aa122-658, with N-terminal His-tag, expressed in insect cells); His-tag (N); made in house; host or cells: insect cells
T1 sequence (P42226 122-658): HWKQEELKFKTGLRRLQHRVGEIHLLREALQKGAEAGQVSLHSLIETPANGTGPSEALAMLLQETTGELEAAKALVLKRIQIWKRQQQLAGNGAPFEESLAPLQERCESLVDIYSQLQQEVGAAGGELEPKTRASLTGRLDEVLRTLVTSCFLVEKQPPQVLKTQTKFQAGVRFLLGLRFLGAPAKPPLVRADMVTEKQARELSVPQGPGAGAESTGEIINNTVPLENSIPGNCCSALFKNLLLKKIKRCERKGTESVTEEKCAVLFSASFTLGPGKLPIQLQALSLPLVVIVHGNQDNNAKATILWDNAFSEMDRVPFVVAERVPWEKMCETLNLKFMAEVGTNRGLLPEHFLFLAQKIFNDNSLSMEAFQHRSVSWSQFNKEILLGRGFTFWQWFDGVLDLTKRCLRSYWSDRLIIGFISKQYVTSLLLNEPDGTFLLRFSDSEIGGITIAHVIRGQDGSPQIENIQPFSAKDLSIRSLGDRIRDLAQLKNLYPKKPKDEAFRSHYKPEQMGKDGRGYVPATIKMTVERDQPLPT
Put plainly: Surface plasmon resonance (SPR) assay, binding to human STAT6. The note with it: Biacore 8K, 25° C, immobilized human STAT6 on CM5 chip, multi-cycle kinetics; geometric mean. How it is done: Surface Plasmon Resonance Assay
Biacore instruments from the 8K-series (Cytiva) were used, and measurements were performed at 25° C. Human STAT6 (truncated, aa122-658, with N-terminal His-tag, expressed in insect cells) was immobilized in the active flow cells on a CM5 chip using amine-coupling (default settings) at 10 μg/ml in 10 mM acetate buffer pH 5.5, at a contact time of 120-420 sec. and a flow rate of 10 μl/min. Reference flow cells were deactivated using blank immobilization. PBS-P+(Cytiva) supplemented with 2% DMSO was used as running buffer, and solvent correction was applied. Compounds were tested by multi-cycle kinetics injections using a contact time of 60 sec., dissociation time of up to 300 sec., and a flow rate of 30 μl/min.
Solvent-corrected, reference-subtracted and blank-corrected data was processed and binding isotherms were fitted according to a single report point from each sensorgram (Standard: Late binding (5 sec. before injection end); alternative: Earlier report point according to binding profile). Data fitting was done both with unfixed Rmax and with Rmax fixed to the theoretical value* assuming 1:1 binding to allow processing of data from both weak and strong binders as well as to evaluate binding stoichiometry.
Positive controls were run at the beginning, during, and at the end of the screen to evaluate surface activity.
*Equation for calculation of the theoretical Rmax(Theoretical Rmax=(MW Analyte/MW Ligand)×immobilization level).
For orientation: SPR reads the build-up and loss of mass on a sensor chip optically.

For assay [2], the system named is Eotaxin-3 (CCL26) release in human whole blood stimulated with IL-4. The assay is described as follows: Human whole blood eotaxin-3 assay (IL-4 stimulated eotaxin-3 release). The settings on record: Homo sapiens, 48 h, human whole blood stimulated with recombinant human IL-4, 48 h, geometric mean; for EC50: inhibition of eotaxin-3 release, given for test compounds with >80% Emax; for Emax: given for test compounds with <80% Emax. The assay is classed as cell-based. The essentials: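 Lithium-heparin human whole blood was preincubated with compound (4-fold serial dilution, 0.5% DMSO final) for 2 h at 37° C, then stimulated with recombinant human IL-4 at […] final for 48 h. Eotaxin-3 (CCL26) in the supernatant was measured by MSD immunoassay.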

`CN(C)C(=O)c1ccc(C2CCN(Cc3cc4c(-n5ccc6[nH]nc(C(F)(F)F)c6c5=O)ccnc4n3C)CC2)cc1` [Example 1ab3, N,N-Dimethyl-4-(1-((1-methyl-4-(4-oxo-3-(trifluoromethyl)-1,4-dihydro-5H-pyrazolo[4,3-c]pyridin-5-yl)-1H-pyrrolo[2,3-b]pyridin-2-yl)methyl)piperidin-4-yl)benzamide] gave a Kd in assay [1] of 20.4 nM. Besides, in assay [2], the EC50 was 193 nM.
Turning to `CN(C)C(=O)c1ccc(C2CCN(Cc3cc4c(-n5ccc(N)nc5=O)ccnc4n3C)CC2)cc1` [Example 1ab6, 4-(1-((4-(4-Amino-2-oxopyrimidin-1 (2H)-yl)-1-methyl-1H-pyrrolo[2,3-b]pyridin-2-yl)methyl)piperidin-4-yl)-N,N-dimethylbenzamide], binding in assay [1] was characterised by a dissociation constant (Kd) of 37.3 nM. Moreover, the Emax in assay [2] fell in the range of 70 to 80%.
In turn, `CN(C)C(=O)c1ccc(C2CCN(Cc3cc4c(-n5cc(F)c(N)nc5=O)ccnc4n3C)CC2)cc1` [Example 1ac2, 4-(1-((4-(4-Amino-5-fluoro-2-oxopyrimidin-1 (2H)-yl)-1-methyl-1H-pyrrolo[2,3-b]pyridin-2-yl)methyl)piperidin-4-yl)-N,N-dimethylbenzamide] displayed a Kd in assay [1] of 75.4 nM. In addition, in assay [2], the Emax was 70 to 80%.
On to `CN(C)C(=O)c1ccc(C2CCN(Cc3cc4c(-n5ccc(N)cc5=O)ccnc4n3C)CC2)cc1` [Example 1d1, 4-[1-[[4-(4-Amino-2-oxo-1-pyridyl)-1-methyl-pyrrolo[2,3-b]pyridin-2-yl]methyl]-4-piperidyl]-N,N-dimethyl-benzamide], for which binding in assay [1] was put at a Kd of 12.5 nM. In assay [2], the EC50 was determined as 119 nM.
For `CNc1ccn(-c2ccnc3c2cc(CN2CCC(c4ccc(C(=O)N(C)C)cc4)CC2)n3C)c(=O)c1` [Example 1d3, N,N-Dimethyl-4-[1-[[1-methyl-4-[4-(methylamino)-2-oxo-1-pyridyl]pyrrolo[2,3-b]pyridin-2-yl]methyl]-4-piperidyl]benzamide], the Kd in assay [1] turned out to be 18.2 nM. Moreover, in assay [2], the EC50 was found to be 84.1 nM.
Turning to `[2H]C([2H])([2H])N(C(=O)c1ccc(C2CCN(Cc3cc4c(-n5ccc(NC)cc5=O)ccnc4n3C)CC2)cc1)C([2H])([2H])[2H]` [Example 1d4, 4-[1-[[1-Methyl-4-[4-(methylamino)-2-oxo-1-pyridyl]pyrrolo[2,3-b]pyridin-2-yl]methyl]-4-piperidyl]-N,N-bis(trideuteriomethyl)benzamide], in assay [1], the Kd amounted to 20.9 nM. Moreover, the concentration for a half-maximal effect (EC50) in assay [2] was determined as 221 nM.
In assay [1], `CN(C)C(=O)c1ccc(C2CCN(Cc3cc4c(-n5cc(F)c(N)cc5=O)ccnc4n3C)CC2)cc1` [Example 1d19, 4-[1-[[4-(4-Amino-5-fluoro-2-oxo-1-pyridyl)-1-methyl-pyrrolo[2,3-b]pyridin-2-yl]methyl]-4-piperidyl]-N,N-dimethyl-benzamide] displayed a Kd of 32.9 nM. Also, the EC50 in assay [2] was 257 nM.
Consider `CN(C)C(=O)c1ccc(C2CCN(Cc3cc4c(-n5ccc(N)c(Br)c5=O)ccnc4n3C)CC2)cc1` [Example 1d20, 4-[1-[[4-(4-Amino-3-bromo-2-oxo-1-pyridyl)-1-methyl-pyrrolo[2,3-b]pyridin-2-yl]methyl]-4-piperidyl]-N,N-dimethyl-benzamide], for which the Kd in assay [1] was 16.1 nM. Also, the EC50 in assay [2] stood at 99.3 nM.
Regarding `Cc1c(N)ccn(-c2ccnc3c2cc(CN2CCC(c4ccc(C(=O)N(C)C)cc4)CC2)n3C)c1=O` [Example 1d21, 4-[1-[[4-(4-Amino-3-methyl-2-oxo-1-pyridyl)-1-methyl-pyrrolo[2,3-b]pyridin-2-yl]methyl]-4-piperidyl]-N,N-dimethyl-benzamide], the affinity in assay [1], expressed as Kd, was 21 nM. The EC50 in assay [2] was 95.8 nM.
On to `CN(C)C(=O)c1ccc(C2CCN(Cc3cc4c(-n5ccc6c(c5=O)CCN6)ccnc4n3C)CC2)cc1` [Example 1d23, N,N-Dimethyl-4-[1-[[1-methyl-4-(4-oxo-2,3-dihydro-1H-pyrrolo[3,2-c]pyridin-5-yl)pyrrolo[2,3-b]pyridin-2-yl]methyl]-4-piperidyl]benzamide], for which the affinity in assay [1], expressed as Kd, was 21.8 nM. The maximal response (Emax) in assay [2] lay within 70 to 80%.
For `CNc1ccn(-c2ccnc3c2cc(CN2CCC(c4ccc(C(=O)N(C)C)cc4C)CC2)n3C)c(=O)c1` [Example 1d25, N,N,3-Trimethyl-4-[1-[[1-methyl-4-[4-(methylamino)-2-oxo-1-pyridyl]pyrrolo[2,3-b]pyridin-2-yl]methyl]-4-piperidyl]benzamide], binding in assay [1] was characterised by a dissociation constant (Kd) of 69.2 nM. Further, the maximal effect (Emax) in assay [2] lay within 70 to 80%.
Regarding `CNc1ccn(-c2ccnc3c2cc(CN2CCC(c4c(C)cc(C(=O)N(C)C)cc4C)CC2)n3C)c(=O)c1` [Example 1d27, N,N,3,5-Tetramethyl-4-[1-[[1-methyl-4-[4-(methylamino)-2-oxo-1-pyridyl]pyrrolo[2,3-b]pyridin-2-yl]methyl]-4-piperidyl]benzamide], the affinity in assay [1], expressed as Kd, was 16 nM. Besides, the EC50 in assay [2] amounted to 25.1 nM.
`CN(C)C(=O)c1ccc(C2CCN(Cc3cc4c(-n5ccc(N)c(C(F)(F)F)c5=O)ccnc4n3C)CC2)cc1` [Example 1d29, 4-[1-[[4-[4-Amino-2-oxo-3-(trifluoromethyl)-1-pyridyl]-1-methyl-pyrrolo[2,3-b]pyridin-2-yl]methyl]-4-piperidyl]-N,N-dimethyl-benzamide] had a Kd in assay [1] of 28.6 nM. The EC50 in assay [2] worked out at 588 nM.
For `COCc1c(N)ccn(-c2ccnc3c2cc(CN2CCC(c4ccc(C(=O)N(C)C)cc4)CC2)n3C)c1=O` [Example 1d30, 4-[1-[[4-[4-Amino-3-(methoxymethyl)-2-oxo-1-pyridyl]-1-methyl-pyrrolo[2,3-b]pyridin-2-yl]methyl]-4-piperidyl]-N,N-dimethyl-benzamide], in that order: 25 nM and 88.4 nM.
In assay [1], `CN(C)C(=O)c1ccc(C2CCN(Cc3cc4c(-n5ccc(N)c(F)c5=O)ccnc4n3C)CC2)cc1` [Example 1d31, 4-[1-[[4-(4-Amino-3-fluoro-2-oxo-1-pyridyl)-1-methyl-pyrrolo[2,3-b]pyridin-2-yl]methyl]-4-piperidyl]-N,N-dimethyl-benzamide] registered a Kd of 22.3 nM. For the same compound, the 50% effective concentration (EC50) in assay [2] was determined as 100 nM.
In assay [1], `CNc1ccn(-c2ccnc3c2cc(CN2CCC(c4ccc(C(=O)N(C)C)cc4F)CC2)n3C)c(=O)c1` [Example 1d34, 3-Fluoro-N,N-dimethyl-4-[1-[[1-methyl-4-[4-(methylamino)-2-oxo-1-pyridyl]pyrrolo[2,3-b]pyridin-2-yl]methyl]-4-piperidyl]benzamide] showed a Kd of 14.2 nM. Also, the EC50 in assay [2] was found to be 29.8 nM.
`CNc1ccn(-c2ccnc3c2cc(CN2CCC(c4ccc(C(=O)N(C)C)cc4OC)CC2)n3C)c(=O)c1` [Example 1d36, 3-Methoxy-N,N-dimethyl-4-[1-[[1-methyl-4-[4-(methylamino)-2-oxo-1-pyridyl]pyrrolo[2,3-b]pyridin-2-yl]methyl]-4-piperidyl]benzamide] returned a Kd in assay [1] of 51.6 nM. Moreover, the EC50 in assay [2] is 260 nM.
For `CN(C)C(=O)c1ccc(C2CCN(Cc3cc4c(-n5ccc(N)c(COC(C)(C)C)c5=O)ccnc4n3C)CC2)cc1` [Example 1d39, 4-[1-[[4-[4-Amino-3-(tert-butoxymethyl)-2-oxo-1-pyridyl]-1-methyl-pyrrolo[2,3-b]pyridin-2-yl]methyl]-4-piperidyl]-N,N-dimethyl-benzamide], in that order: 98.7 nM and 961 nM.
For the compound `CNc1ccn(-c2ccnc3c2cc(CN2CCC(c4ccc(C(=O)N(C)C)cc4)CC2=O)n3C)c(=O)c1` (stereo not shown) [Example 1f8, N,N-Dimethyl-4-[1-[[1-methyl-4-[4-(methylamino)-2-oxo-1-pyridyl]pyrrolo[2,3-b]pyridin-2-yl]methyl]-2-oxo-4-piperidyl]benzamide], in assay [1], the Kd was 134 nM. The EC50 in assay [2] turned out to be 957 nM.
For `CN(C)C(=O)c1ccc(C2CCN(Cc3cc4c(-n5ccc6[nH]ncc6c5=O)ccnc4n3C)CC2)cc1` [Example 1j27, N,N-Dimethyl-4-[1-[[1-methyl-4-(4-oxo-1H-pyrazolo[4,3-c]pyridin-5-yl)pyrrolo[2,3-b]pyridin-2-yl]methyl]-4-piperidyl]benzamide], in that order: 9.79 nM and 44.7 nM.
